Key:
[1] = test system: Su-DHL-4 cell line; assay: Cellular growth inhibition assay, Su-DHL-4 cells (CellTiter-Glo); assay type: cell-based; conditions: Homo sapiens; Su-DHL-4 cell line (DLBCL), 72 hours, CellTiter-Glo 2.0
Experimental: (§1) Exemplary compounds were tested for ability to inhibit the proliferation of Su-DHL-4 and Farage cells. Su-DHL-4 and Farage cells are commercially available diffuse large B cell lymphoma cell lines (DLBCL).
(§2) Su-DHL-4 and Farage cells were purchased from American Type Cell Culture (ATCC Cat #CRL-2957/CRL-2630) and then seeded on poly-D-lysine coated, black clear-bottom 384-well plates at 3000/well in 25 μL Roswell Park Memorial Institute media (RPMI-1640) supplemented with 10% w/w Fetal bovine serum (FBS) and 1% w/w Pen-Strep. Pen-Strep is a commercially available mixture of penicillin G and streptomycin, which is used in mammalian cell culture media to prevent bacterial contamination. Roswell Park Memorial Institute media (RPMI-1640) supplemented with 10% w/w fetal bovine serum (FBS), and 1% w/w Pen-Strep is herein referred to as Treatment Medium. Following seeding of cells in the plates, the plates were spun at 300×g for 30 seconds, then equilibrated to room temperature for 30 minutes, and then deposited in a humidified tissue culture incubator maintained at 37° C. with 5% CO2.
(§3) At 24 hours after seeding of the cells, dilutions of test compound were prepared in DMSO and dissolved in Treatment Medium, to achieve a final DMSO concentration of 0.5% w/w, thereby providing the Test Compound Solution. A 25 μL aliquot of the Test Compound Solution was added to cells in the well plates. An equal volume of a solution containing DMSO and Treatment Medium was used as a negative control. Following treatment of cells with Test Compound Solution or said equal volume of a solution containing DMSO and Treatment Medium, the plates were spun at 300×g for 30 seconds, and then left in an incubator for 72 hours.
(§4) At the end of the treatment duration, cell viability was quantified with CellTiter-Glo 2.0 reagent (Promega Cat #G9243). For this purpose, plates were equilibrated to room temperature for 30 minutes, and then 25 μL of CellTiter-Glo 2.0 reagent was added to cells in the plate wells. Plates were then agitated on a shaker for two minutes at 500 rpm and subsequently incubated at room temperature for 10 minutes. Following incubation, the plates were spun at 3000×g for 30 seconds, then sealed with an optical adhesive cover, and luminescence readings were measured with an EnVision Plate Reader (Perkin Elmer).
(§5) Data was normalized using zero luminescence for baseline. A four-parameter non-linear regression curve fit was applied to dose-response data in GraphPad Prism data analysis software to determine the half-maximal growth inhibitory concentration (GI50) for each test compound.

[2] = molecular target: T1, biotinylated BCL6 (5-129) (Homo sapiens, UniProt P41182); assay: SPR assay for binding affinity to BCL6; conditions: Biacore 8K, 25° C., immobilized biotinylated BCL6 (5-129)
T1 construct: biotinylated BCL6 (5-129) was diluted in 10 mM HEPES pH 7.4; biotin (biotinylated)
Experimental: Exemplary compounds were tested for ability to bind to B-cell lymphoma 6 (BCL6) protein.
Binding studies by surface plasmon resonance (SPR) were performed using a Biacore 8K (Cytiva) instrument at 25° C. Briefly, biotinylated BCL6 (5-129) was diluted in 10 mM HEPES pH 7.4, 150 mM NaCl, 0.05% Surfactant P20, 0.5 mM TCEP, 3% DMSO to 1-5 μg/mL and was immobilized on an SA sensor chip (Cytiva, BR100032), resulting in surface densities at 1000-3000 resonance units (RUs). Test compounds were serially diluted five times in the same buffer and were injected to the immobilized surface. Kinetic determination experiments were performed using single-cycle kinetics with 110-120 s contact time, 1000-4000 s dissociation time, 30 μL/min flow rate. Binding data were analyzed by using Biacore insight evaluation software to determine KD values for test compounds.

[3] = molecular target: T2, His-tagged BRD4 BD1 (46-168) (Homo sapiens, UniProt O60885); assay: AlphaLISA competition assay, BRD4 BD1; assay type: binding; conditions: BRD4-BD1, AlphaLISA competition with biotinylated histone H4K5/8/12/16(Ac) peptide, 10 nM
T2 construct: His-tagged BRD4 BD1 (46-168) and biotinylated histone H4K5/8/12/16(Ac) peptide
Experimental: (§6) Exemplary compounds were tested for ability to bind to bromodomain-containing protein 4 (BRD4).
(§7) Compounds were tested using a developed AlphaLISA competition assay. Briefly, His-tagged BRD4 BD1 (46-168) and biotinylated histone H4K5/8/12/16(Ac) peptide (ANASPEC, AS-64989-1) were incubated in 20 mM HEPES pH 7.5, 100 mM NaCl, 0.5 mM TCEP, 0.1% BSA, 0.02% CHAPS at a final concentration of 10 nM. Test compounds were serially diluted ten times in the same buffer and were added to the BRD4-peptide mixture for 1 h incubation at room temperature. Following incubation, Streptavidin AlphaLISA acceptor beads (PerkinElmer, AL125M) were added to BRD4-peptide-compound samples to a final concentration of 0.01 mg/mL for a 0.5 h incubation at room temperature in the dark. Following incubation, the same amount of Nickel Chelate Alpha donor beads (PerkinElmer, AS101M) were added to the samples for a final 1 h incubation. The AlphaLISA signals were measured using an EnVision plate reader (PerkinElmer). The data were uploaded to Screening Ultra (Dotmatics) to determine the half-maximal inhibitory concentration (IC50) for each test compound.

[4] = molecular target: T3, His-tagged BRD4 BD2 (333-460) (Homo sapiens, UniProt O60885); assay: AlphaLISA competition assay, BRD4 BD2; assay type: binding; conditions: BRD4-BD2, AlphaLISA competition with biotinylated histone H4K5/8/12/16(Ac) peptide, 20 nM
T3 construct: The same assay was developed for His-tagged BRD4 BD2 (333-460) and biotinylated histone H4K5/8/12/16(Ac) peptide
Experimental: as §6, §7
The same assay was developed for His-tagged BRD4 BD2 (333-460) and biotinylated histone H4K5/8/12/16(Ac) peptide at a final concentration of 20 nM.

[5] = test system: T-Rex 293 cell line SC cells having increased expression of BCL6 protein; assay: Cellular growth inhibition assay, T-Rex 293 SC cells with doxycycline (CellTiter-Glo); assay type: cell-based; conditions: T-Rex 293 SC cells with 10 ng/mL doxycycline (increased BCL6 expression), 72 hours, CellTiter-Glo 2.0
Experimental: (§8) Exemplary compounds were tested for ability to inhibit the proliferation of the following types of cells: (i) a T-Rex 293 cell line having increased expression of BCL6 protein due to exposure of doxycycline and (ii) a T-Rex 293 cell line lacking increased expression of BCL6 protein.
(§9) The following types of cells were prepared for this experiment: (i) a T-Rex 293 cell line having increased expression of BCL6 protein due to exposure to doxycycline and (ii) a T-Rex 293 cell line lacking increased expression of BCL6 protein. Ability of the test compounds to inhibit proliferation of the foregoing cell types was evaluated according to the procedures set forth below.
(§10) The doxycycline-inducible BCL6 protein expressing cell line was established using the following protocol: T-Rex 293 cells were purchased from Invitrogen (Cat #R71007) and transfected using Lipofectamine 2000 with the wild-type BCL6 protein sequence cloned into the pcDNA4/TO vector. Transfected cells were selected using 400 μg/mL Zeocin (Invitrogen Cat #R25001). Following selection, single clones were raised and maintained in Dulbecco's Modified Eagle Medium (DMEM) supplemented with 10% w/w Tetracycline-free fetal bovine serum (FBS) and 250 μg/mL Zeocin. Clones were analyzed for expression of BCL6 protein in the presence and absence of 10 ng/mL doxycycline (Sigma Cat #D9891), and a single doxycycline-inducible clone (hereinafter “SC”) was selected for use in downstream assays.
(§11) The SC cells were seeded on poly-D-lysine coated, black clear-bottom 384-well plates at 2500/well, in 25 μL Dulbecco's Modified Eagle Medium (DMEM) supplemented with 10% w/w Tetracycline-free fetal bovine serum (FBS) and 1% w/w pen-strep, with or without 10 ng/mL doxycycline. Pen-Strep is a commercially available mixture of penicillin G and streptomycin, which is used in mammalian cell culture media to prevent bacterial contamination. Dulbecco's Modified Eagle Medium (DMEM) supplemented with 10% w/w Tetracycline-free fetal bovine serum (FBS) and 1% w/w pen-strep, with or without 10 ng/mL doxycycline is herein referred to as Treatment Medium. Following seeding of cells in the plates, the plates were spun at 300×g for 30 seconds, then equilibrated to room temperature for 30 minutes, and then deposited in a humidified tissue culture incubator maintained at 37° C. with 5% CO2.
as §3, §4, §5

[6] = test system: T-Rex 293 cell line SC cells lacking increased expression of BCL6 protein; assay: Cellular growth inhibition assay, T-Rex 293 SC cells without doxycycline (CellTiter-Glo); assay type: cell-based; conditions: T-Rex 293 SC cells not exposed to doxycycline (no increased BCL6 expression), 72 hours, CellTiter-Glo 2.0
Experimental: as §8, §9, §10, §11, §3, §4, §5

[7] = test system: Farage cell line; assay: Cellular growth inhibition assay, Farage cells (CellTiter-Glo); assay type: cell-based; conditions: Farage cell line (DLBCL), 72 hours, CellTiter-Glo 2.0
Experimental: as §1, §2, §3, §4, §5

## CCS(=O)(=O)Nc1ccc(Oc2cccc(OCCOCCOC3CCN(c4ncc(Cl)c(Nc5ccc6c(c5)cc(OCC(=O)NC)c(=O)n6C)n4)CC3)c2)c(-c2cn(C)c(=O)c3[nH]ccc23)c1 [Compound I-1, 2-[[6-[[5-chloro-2-[4-[2-[2-[3-[4-(ethylsulfonylamino)-2-(6-methyl-7-oxo-1H-pyrrolo[2,3-c]pyridin-4-yl)phenoxy]phenoxy]ethoxy]ethoxy]-1-piperidyl]pyrimidin-4-yl]amino]-1-methyl-2-oxo-3-quinolyl]oxy]-N-methyl-acetamide]
[1]
  GI50: < 0.5 µM

## CCS(=O)(=O)Nc1ccc(Oc2cccc(OCCN3CCN(CC4CCN(c5ncc(Cl)c(Nc6ccc7c(c6)cc(OCC(=O)NC)c(=O)n7C)n5)CC4)CC3)c2)c(-c2cn(C)c(=O)c3[nH]ccc23)c1 [Compound I-4]
[2]
  Kd: > 0.1 µM
[3]
  IC50: 0.05 to 0.5 µM
[4]
  IC50: 0.005 to 0.05 µM
[5]
  GI50: < 0.5 µM
[6]
  GI50: < 0.5 µM
[1]
  GI50: < 0.5 µM

## CNC(=O)COc1cc2cc(Nc3nc(N4CCC(CN5CCN(Cc6ccc(Oc7ccc(C(C)(C)O)cc7-c7cn(C)c(=O)c8[nH]ccc78)cc6)CC5)CC4)ncc3Cl)ccc2n(C)c1=O [Compound I-38]
[2]
  Kd: > 0.1 µM
[3]
  IC50: < 0.005 µM
[4]
  IC50: < 0.005 µM
[5]
  GI50: < 0.5 µM
[6]
  GI50: < 0.5 µM
[7]
  GI50: < 0.5 µM

## CNC(=O)COc1cc2cc(Nc3nc(N4CCC(CN5CCN(Cc6cccc(Oc7ccc(C(C)(C)O)cc7-c7cn(C)c(=O)c8[nH]ccc78)c6)CC5)CC4)ncc3Cl)ccc2n(C)c1=O [Compound I-39]
[2]
  Kd: 0.01 to 0.1 µM
[3]
  IC50: 0.005 to 0.05 µM
[4]
  IC50: < 0.005 µM
[5]
  GI50: < 0.5 µM
[6]
  GI50: < 0.5 µM
[7]
  GI50: < 0.5 µM

## CNC(=O)COc1cc2cc(Nc3nc(N4CCC(N5CCN(Cc6cccc(Oc7ccc(C(C)(C)O)cc7-c7cn(C)c(=O)c8[nH]ccc78)c6)CC5)CC4)ncc3Cl)ccc2n(C)c1=O [Compound I-40]
[2]
  Kd: 0.01 to 0.1 µM
[3]
  IC50: < 0.005 µM
[4]
  IC50: < 0.005 µM
[5]
  GI50: < 0.5 µM
[6]
  GI50: < 0.5 µM
[7]
  GI50: < 0.5 µM

## CNC(=O)COc1cc2cc(Nc3nc(N4CCCC5(CN(C[C@H]6C[C@H](Oc7ccc(C(C)(C)O)cc7-c7cn(C)c(=O)c8[nH]ccc78)C6)C5)C4)ncc3Cl)ccc2n(C)c1=O [Compound I-41]
[2]
  Kd: 0.001 to 0.01 µM
[3]
  IC50: < 0.005 µM
[4]
  IC50: > 0.5 µM
[5]
  GI50: < 0.5 µM
[6]
  GI50: > 3 µM
[7]
  GI50: 1.5 to 3 µM

## CNC(=O)COc1cc2cc(Nc3nc(N4CCCC5(CN(C[C@H]6C[C@@H](Oc7ccc(C(C)(C)O)cc7-c7cn(C)c(=O)c8[nH]ccc78)C6)C5)C4)ncc3Cl)ccc2n(C)c1=O [Compound I-42]
[2]
  Kd: < 0.001 µM
[3]
  IC50: < 0.005 µM
[4]
  IC50: > 0.5 µM
[5]
  GI50: < 0.5 µM
[6]
  GI50: > 3 µM
[7]
  GI50: 1.5 to 3 µM

## CNC(=O)COc1cc2cc(Nc3nc(N4CCC(CN5CCCC6(C5)CN(C[C@H]5C[C@@H](Oc7ccc(C(C)(C)O)cc7-c7cn(C)c(=O)c8[nH]ccc78)C5)C6)CC4)ncc3Cl)ccc2n(C)c1=O [Compound I-44]
[2]
  Kd: 0.001 to 0.01 µM
[3]
  IC50: < 0.005 µM
[4]
  IC50: < 0.005 µM
[5]
  GI50: < 0.5 µM
[6]
  GI50: 0.5 to 1.5 µM
[7]
  GI50: < 0.5 µM

## CNC(=O)COc1cc2cc(Nc3nc(N4CCC(CN5CCN(CC[C@H]6C[C@@H](Oc7ccc(C(C)(C)O)cc7-c7cn(C)c(=O)c8[nH]ccc78)C6)CC5)CC4)ncc3Cl)ccc2n(C)c1=O [Compound I-46]
[2]
  Kd: 0.001 to 0.01 µM
[3]
  IC50: < 0.005 µM
[4]
  IC50: < 0.005 µM
[5]
  GI50: < 0.5 µM
[6]
  GI50: < 0.5 µM
[7]
  GI50: < 0.5 µM

## CNC(=O)COc1cc2cc(Nc3nc(N4CCN(CCN5CCN(Cc6cccc(Oc7ccc(C(C)(C)O)cc7-c7cn(C)c(=O)c8[nH]ccc78)c6)CC5)CC4)ncc3Cl)ccc2n(C)c1=O [Compound I-47]
[2]
  Kd: 0.001 to 0.01 µM
[3]
  IC50: < 0.005 µM
[4]
  IC50: < 0.005 µM
[5]
  GI50: < 0.5 µM
[6]
  GI50: < 0.5 µM
[7]
  GI50: < 0.5 µM

## CNC(=O)COc1cc2cc(Nc3nc(N4CCC(N5CCN(Cc6ccc(Oc7ccc(C(C)(C)O)cc7-c7cn(C)c(=O)c8[nH]ccc78)cc6)CC5)CC4)ncc3Cl)ccc2n(C)c1=O [Compound I-48]
[2]
  Kd: 0.01 to 0.1 µM
[3]
  IC50: < 0.005 µM
[4]
  IC50: < 0.005 µM
[5]
  GI50: < 0.5 µM
[6]
  GI50: < 0.5 µM
[7]
  GI50: < 0.5 µM

Reference: patent US20260028338A1, “HETEROBIFUNCTIONAL COMPOUNDS AND METHODS OF TREATING DISEASE” (Halda Therapeutics OpCo, Inc., priority 2023, published 2026)
